The text below walks through data of patent US9771592B2, “Methods and compositions for treating or preventing pruritis” (The Johns Hopkins University, priority 2008, dated 2017).

One experiment deals with DRG neurons. Briefly: Calcium imaging of cultured dissociated DRG neurons. The format is cell-based, mouse. The conditions noted are these: for effect on CQ-induced [Ca2+]i increase: WT DRG neurons.
Another experiment addresses T1, MrgprA3 (Mus musculus, UniProt Q91WW3).
T1 sequence (Q91WW3 1-302): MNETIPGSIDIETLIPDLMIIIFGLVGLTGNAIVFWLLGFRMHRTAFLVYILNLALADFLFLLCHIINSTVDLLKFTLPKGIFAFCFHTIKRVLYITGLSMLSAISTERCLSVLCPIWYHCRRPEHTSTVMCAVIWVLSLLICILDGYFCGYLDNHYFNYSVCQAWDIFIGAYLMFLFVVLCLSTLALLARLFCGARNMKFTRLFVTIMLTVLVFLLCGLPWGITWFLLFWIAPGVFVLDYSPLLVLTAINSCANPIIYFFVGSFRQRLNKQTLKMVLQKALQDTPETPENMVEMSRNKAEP
Briefly: Calcium imaging of HEK293 cells transfected with Mrgpr-GFP constructs. The format is cell-based. More on the design: expressed in transfected cells; host or cells: HEK293. The source says:
(§1) Each of the twelve Mrgprs that were deleted in Mrgpr-clusterΔ^−/− mice were cloned into a mammalian expression vector (FIG. 1A), and transfected individually into human embryonic kidney (HEK) 293 cells. By fusing green fluorescent protein (GFP) to the C-termini of the Mrgpr coding sequences, both transfected cells and the proper membrane localization of the receptors was visualized. […] Increased [Ca^2+]i resulting from activation of the receptors was monitored by calcium imaging.
(§2) Serotonin also has a bicyclic structure. […] Quinine is another drug used to treat malaria and its side effects also include itch. However, it is unclear if quinine-induced itch is an allergic response.
(§3) HEK293 cells were cultured in growth medium consisted of 90% DMEM, 10% fetal bovine serum, 100 U/ml penicillin, and 100 μg/ml Streptomycin (Invitrogen) at 37° C. in the presence of […] and 5% CO2. HEK293 cells were transfected with Mrgpr-expression constructs using Lipofectamine 2000 (Invitrogen) according to the manufacturer's protocol.

Another experiment deals with histamine H1 receptor (Homo sapiens, UniProt P35367). To be noted: HEK293 cells; histamine 50 μM.
histamine H1 receptor, sequence (P35367 whole entry, species assumed): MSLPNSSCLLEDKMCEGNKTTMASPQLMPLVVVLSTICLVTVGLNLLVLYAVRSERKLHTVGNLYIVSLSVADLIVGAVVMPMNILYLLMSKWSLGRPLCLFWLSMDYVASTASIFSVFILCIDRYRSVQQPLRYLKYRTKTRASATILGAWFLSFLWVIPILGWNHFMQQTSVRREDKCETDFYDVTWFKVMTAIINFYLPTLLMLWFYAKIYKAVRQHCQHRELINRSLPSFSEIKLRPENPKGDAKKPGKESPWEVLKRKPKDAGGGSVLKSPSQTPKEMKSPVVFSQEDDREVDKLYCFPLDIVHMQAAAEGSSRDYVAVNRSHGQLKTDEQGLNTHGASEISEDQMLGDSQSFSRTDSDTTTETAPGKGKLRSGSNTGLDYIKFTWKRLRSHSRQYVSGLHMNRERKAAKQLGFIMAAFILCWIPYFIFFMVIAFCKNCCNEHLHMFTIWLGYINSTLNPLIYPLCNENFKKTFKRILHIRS
Text: as §1, §3

A further experiment has as its system mice. As to the kind of experiment: Scratching behavior after pruritogen injection in mice. Type of experiment: in vivo, mouse. The conditions noted are these: for scratching in Mrgpr-clusterΔ-/- mice compared with WT: 30 min, histamine 10 μmol, compound 48/80 100 μg/50 μl, CQ 200 μg/50 μl, BAM8-22 50 μl of 1 mM. From the text: Kuraishi et al., (1995). […] F. (2007) Nature 448, 700-703).

Experiment [1] deals with T2, MrgprX1 (Homo sapiens, UniProt Q96LB2). Briefly: Calcium imaging of HEK293 cells transfected with Mrgpr-GFP constructs. Type of experiment: cell-based. The conditions noted are these: BAM8-22 2 μM. As for the experimental part: The human Mrgpr family (i.e. MrgprXs) is much smaller than the murine family.
T2 sequence (Q96LB2 whole entry): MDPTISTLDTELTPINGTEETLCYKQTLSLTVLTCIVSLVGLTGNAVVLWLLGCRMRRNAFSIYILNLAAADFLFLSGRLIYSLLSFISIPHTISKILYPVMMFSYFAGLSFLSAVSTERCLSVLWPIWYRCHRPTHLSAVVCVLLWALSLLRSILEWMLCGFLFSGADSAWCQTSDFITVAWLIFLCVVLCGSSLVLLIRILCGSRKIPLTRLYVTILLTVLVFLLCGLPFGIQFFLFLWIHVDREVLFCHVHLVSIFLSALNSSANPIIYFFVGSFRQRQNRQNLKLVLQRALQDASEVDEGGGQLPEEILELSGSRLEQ
as §2, §3

The test system of another experiment is rats. As to the kind of experiment: Scratching behavior after intradermal injection in rats. To be noted: 500 μg/50 μl, first 30 min.
For a further experiment, the target named is T3, rat MrgprC (Rattus norvegicus, UniProt Q8R4G1).
T3 sequence (Q8R4G1 1-323): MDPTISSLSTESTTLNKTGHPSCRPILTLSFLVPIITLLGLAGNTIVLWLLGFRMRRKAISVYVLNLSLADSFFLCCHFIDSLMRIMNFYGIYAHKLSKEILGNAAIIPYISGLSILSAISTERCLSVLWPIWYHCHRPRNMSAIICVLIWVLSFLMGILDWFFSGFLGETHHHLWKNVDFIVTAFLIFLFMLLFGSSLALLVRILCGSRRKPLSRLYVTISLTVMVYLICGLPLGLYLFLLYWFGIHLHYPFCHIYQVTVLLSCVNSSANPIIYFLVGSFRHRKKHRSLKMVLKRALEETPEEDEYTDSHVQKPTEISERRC
As to the kind of experiment: Rescue: Mrgpr-clusterΔ-/- DRG neurons electroporated with rat Mrgpr, calcium imaging. To be noted: BAMS-22 10 μM.

A further experiment has as its target T4, MrgprC11 (Mus musculus, UniProt Q8CIP3).
T4 construct: expressed in transfected cells; host or cells: HEK293
T4 sequence (Q8CIP3 1-322): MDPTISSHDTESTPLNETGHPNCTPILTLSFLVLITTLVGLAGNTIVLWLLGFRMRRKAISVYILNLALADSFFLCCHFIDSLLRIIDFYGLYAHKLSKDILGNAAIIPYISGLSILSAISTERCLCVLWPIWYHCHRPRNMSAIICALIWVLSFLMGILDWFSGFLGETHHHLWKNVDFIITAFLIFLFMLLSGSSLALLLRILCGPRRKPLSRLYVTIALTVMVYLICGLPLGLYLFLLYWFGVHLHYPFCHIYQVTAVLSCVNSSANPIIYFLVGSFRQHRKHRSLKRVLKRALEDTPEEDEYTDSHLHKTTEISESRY
Briefly: Calcium imaging of HEK293 cells transfected with Mrgpr-GFP constructs. The conditions noted are these: BAM8-22 2 μM. Type of experiment: cell-based.
Text: as §1
(§4) HEK293 cells were transfected with Mrgpr-expression constructs using Lipofectamine 2000 (Invitrogen) according to the manufacturer's protocol.

In experiment [2] the target is T2, MrgprX1. As to the kind of experiment: Rescue: Mrgpr-clusterΔ-/- DRG neurons electroporated with Mrgpr construct. Type of experiment: cell-based, mouse.
Description: (§5) To determine whether MrgprA3 or MrgprX1 can rescue the phenotypes of DRG neurons from Mrgpr-clusterΔ^−/− mice, the Mrgpr expression constructs used in the heterologous studies were electroporated into dissociated adult DRG neurons from these mice. After 24 hour in culture, expression and membrane localization of the transfected Mrgprs in the mutant neurons could be readily visualized by GFP (FIG. 8G).
Experiment [3] addresses T5, MrgprA1 (Mus musculus, UniProt Q91WW5).
T5 sequence (Q91WW5 1-304): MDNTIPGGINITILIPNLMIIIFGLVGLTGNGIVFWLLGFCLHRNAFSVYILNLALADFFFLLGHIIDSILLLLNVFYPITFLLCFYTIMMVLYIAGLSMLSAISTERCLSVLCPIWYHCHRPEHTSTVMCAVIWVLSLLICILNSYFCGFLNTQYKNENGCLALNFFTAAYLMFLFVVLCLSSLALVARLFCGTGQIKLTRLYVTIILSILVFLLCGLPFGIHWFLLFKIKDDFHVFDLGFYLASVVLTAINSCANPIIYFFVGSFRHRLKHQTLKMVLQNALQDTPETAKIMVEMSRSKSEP
The experiment is described as above. The format is cell-based. More on the design: expressed in transfected cells; host or cells: dissociated adult DRG neurons of Mrgpr-cluster-deleted mice. The conditions noted are these: FMRF 2 μM.
Description: as §5

In experiment [4] the target is T5, MrgprA1. As to the kind of experiment: Calcium imaging of HEK293 cells transfected with Mrgpr-GFP constructs. More on the design: expressed in transfected cells. To be noted: CQ 1 mM, FMRF 2 μM. Type of experiment: cell-based.
Text: as §1, §4

Another experiment deals with T6, MrgprA4 (Mus musculus, UniProt Q91WW2).
T6 construct: expressed in transfected cells; host or cells: HEK293
T6 sequence (Q91WW2 1-313): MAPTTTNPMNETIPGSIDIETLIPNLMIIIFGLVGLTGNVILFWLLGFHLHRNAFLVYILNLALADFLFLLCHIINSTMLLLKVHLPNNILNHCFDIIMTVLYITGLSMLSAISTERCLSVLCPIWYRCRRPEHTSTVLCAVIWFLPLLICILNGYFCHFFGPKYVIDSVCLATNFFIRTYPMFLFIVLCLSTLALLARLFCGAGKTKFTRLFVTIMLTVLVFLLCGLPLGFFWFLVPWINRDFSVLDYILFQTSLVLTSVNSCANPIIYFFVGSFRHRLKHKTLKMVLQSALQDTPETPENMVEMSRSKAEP
Described as above. Type of experiment: cell-based. The conditions noted are these: NPFF 2 μM.
Text: as §1, §4

`O=C(O)CN(CCOCCOCCN(CC(=O)O)CC(=O)O)CC(=O)O` [EGTA]: in the experiment on DRG neurons, the “effect on CQ-induced [Ca2+]i increase” value was “almost completely blocked”.

Take `N.N.N.N.N.N.N.N.N.N.N.N.N.N.[Cl-].[Cl-].[Cl-].[Cl-].[Cl-].[Cl-].[O-2].[O-2].[Ru+3].[Ru+3].[Ru+4]` [Ruthenium red]: in the experiment with DRG neurons, the “effect on CQ-induced [Ca2+]i increase” value is listed as “severely attenuated”.

On to `NCCc1c[nH]c2ccc(O)cc12` [Serotonin], for which, on MrgprA3 (100 μM), the “activation of MrgprA3” value is reported as “failed to activate”.

Take `NCCc1c[nH]cn1` [histamine]: in the experiment on DRG neurons (histamine 50 μM), the “percentage of DRG neurons responding, WT versus mutant cultures” value is recorded as “identical”. Moreover, on histamine H1 receptor, the “response of histamine H1 receptor-expressing cells” value was “strong response”. In addition, in the experiment on mice, the “scratching in Mrgpr-clusterΔ-/- mice compared with WT” value is given as “No significant difference”. For the same compound, the “activation of MrgprA3 (increased [Ca2+]i)” value at MrgprA3 is given as “did not respond”.

On to `C=C[C@H]1C[N@@]2CC[C@H]1C[C@H]2[C@H](O)c1ccnc2ccc(OC)cc12` [quinine], for which the “activation of MrgprA3 (increased [Ca2+]i)” value at MrgprA3 is on record as “weakly activates”.

For the compound `c1ccc2ncccc2c1` [quinoline], the scratching behavior evoked result with mice (both WT and mutant mice) was “did not evoke any scratching behavior”. The “activation of MrgprX1 (increased [Ca2+]i)” value on MrgprX1 [1] is reported as “completely failed to activate”. For the same compound, the scratching responses result in the experiment on rats was “did not”. Moreover, at MrgprA3, the “activation of MrgprA3 (increased [Ca2+]i)” value is “completely failed to activate”.

As to “BAM8-22: bovine adrenal medulla peptide; MrgprC11-specific agonist (VGRPEWWMDYQKRYG)”, the “response of rat MrgprC-electroporated Mrgpr-deficient neurons” value with rat MrgprC is given as “responded”. The DRG neurons responding entry with DRG neurons (Mrgpr-clusterΔ-/- mice) is on record as “no DRG neurons”. For the same compound, in the experiment with MrgprC11, the “response of MrgprC11-expressing cells” value is listed as “responded”. Moreover, in the experiment on mice, the “scratching in Mrgpr-clusterΔ-/- mice compared with WT” value is recorded as “dramatic reduction”. The scratching behavior evoked result with mice (WT mice, intradermal injection, 50 μl of 1 mM) was “induced strong scratching behavior”. In the experiment with MrgprX1 [1], the “activation of MrgprX1 (increased [Ca2+]i)” value is recorded as “responded”. The “[Ca2+]i response of MrgprX1-electroporated mutant neurons” value in the experiment with MrgprX1 [2] is given as “sensitivity”. In addition, the “activation of MrgprA3 (increased [Ca2+]i)” value with MrgprA3 was “did not respond”.

As to “FMRF: molluscan FMRFamide, peptide agonist of MrgprA1”, the “[Ca2+]i response of MrgprA1-electroporated mutant neurons” value in the experiment with MrgprA1 [3] was “strong response”. For the same compound, the “response of MrgprA1-transfected cells (increased [Ca2+]i)” value with MrgprA1 [4] is listed as “all transfected cells responded”.

With “NPFF: mammalian neuropeptide FF, peptide agonist of MrgprA4”, the “response of MrgprA4-expressing cells” value in the experiment with MrgprA4 is on record as “respond”.
